Assay results as given in ChEMBL document CHEMBL1132889, “Synthesis and evaluation of 9,9-dimethylxanthene tricyclics against trypanothione reductase, Trypanosoma brucei, Trypanosoma cruzi and Leishmania donovani” (2000).
Converted amounts (≈) assume the structure as drawn.

How the values were obtained:
Trypanosoma cruzi [1] = test: The compound was evaluated in vitro for its inhibitory affect against Trypanosoma cruzi; assay type: functional; details: read-out: ED50 (the source's name)
[2] = molecular target: Trypanothione reductase (Trypanosoma cruzi) (UniProt P28593); test: The compound was evaluated in vitro for its inhibitory affect against trypanothione reductase; design: concentration or dose not given beside the values; details: concentration not given here
Leishmania donovani [3] = test: The compound was evaluated in vitro for its inhibitory affect against Leishmania donovani; assay type: functional; details: read-out: ED50 (the source's name)
[4] = Cytotoxicity against peritoneal macrophages of female CD1 mice culturing amastigote stages of Trypanosoma cruzi; assay type: functional; details: Mus musculus
Trypanosoma brucei [5] = test: The compound was evaluated in vitro for its inhibitory affect against Trypanosoma brucei; (9.66 mM Sb); assay type: functional; details: read-out: ED50 (the source's name)
[6] = Cytotoxicity against peritoneal macrophages of female CD1 mice culturing amastigote stages of Leishmania donovani; assay type: functional; details: Mus musculus
Trypanosoma brucei [7] = test: The compound was evaluated in vitro for its inhibitory affect against Trypanosoma brucei; (0.14 mM Sb); assay type: functional; details: read-out: ED50 (the source's name)
Trypanosoma brucei [8] = test: The compound was evaluated in vitro for its inhibitory affect against Trypanosoma brucei; (7.58 mM Sb); assay type: functional; details: read-out: ED50 (the source's name)
Trypanosoma cruzi [9] = test: In vitro inhibitory affect against Trypanosoma cruzi; (32.7 mM Sb); assay type: functional; details: read-out: ED50 (the source's name)
Trypanosoma brucei [10] = test: The compound was evaluated in vitro for its inhibitory affect against Trypanosoma brucei; (0.098 mM Sb); assay type: functional; details: read-out: ED50 (the source's name)
Trypanosoma brucei [11] = test: The compound was evaluated in vitro for its inhibitory affect against Trypanosoma brucei; (0.03 mM Sb); assay type: functional; details: read-out: ED50 (the source's name)
Leishmania donovani [12] = test: The compound was evaluated in vitro for its inhibitory affect against Leishmania donovani; (0.55 mM Sb); assay type: functional; details: read-out: ED50 (the source's name)
Trypanosoma cruzi [13] = test: The compound was evaluated in vitro for its inhibitory affect against Trypanosoma cruzi; (0.48 mM Sb); assay type: functional; details: read-out: ED50 (the source's name)
Trypanosoma brucei [14] = test: The compound was evaluated in vitro for its inhibitory affect against Trypanosoma brucei; (0.02 mM Sb); assay type: functional; details: read-out: ED50 (the source's name)
Leishmania donovani [15] = test: The compound was evaluated in vitro for its inhibitory affect against Leishmania donovani; (32.6 mM Sb); assay type: functional; details: read-out: ED50 (the source's name)
Trypanosoma brucei [16] = test: The compound was evaluated in vitro for its inhibitory affect against Trypanosoma brucei; (8.24 mM Sb); assay type: functional; details: read-out: ED50 (the source's name)

Trypanothione reductase (Trypanosoma cruzi), sequence (P28593 whole entry, looked up): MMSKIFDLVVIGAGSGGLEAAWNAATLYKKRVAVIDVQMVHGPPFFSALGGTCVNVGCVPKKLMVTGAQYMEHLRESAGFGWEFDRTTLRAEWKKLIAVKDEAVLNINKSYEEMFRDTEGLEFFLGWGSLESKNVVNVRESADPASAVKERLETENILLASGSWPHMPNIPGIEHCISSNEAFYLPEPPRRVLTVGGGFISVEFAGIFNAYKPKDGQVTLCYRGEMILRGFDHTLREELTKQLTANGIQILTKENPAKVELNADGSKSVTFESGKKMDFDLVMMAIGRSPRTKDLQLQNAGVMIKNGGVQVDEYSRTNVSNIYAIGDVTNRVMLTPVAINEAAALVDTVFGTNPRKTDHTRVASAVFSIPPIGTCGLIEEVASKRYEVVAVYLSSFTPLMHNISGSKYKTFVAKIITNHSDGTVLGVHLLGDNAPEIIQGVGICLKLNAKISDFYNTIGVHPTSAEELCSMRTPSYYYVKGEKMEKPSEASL

Row | Compound | EC50 (Trypanosoma cruzi [1]) [µg/mL] | inhibition [2] [%] | EC50 (Leishmania donovani [3]) [µg/mL] | MIC [4] [µg/mL] | MIC [6] [µg/mL] | further results
1 | CN(C)CCCNC(=O)c1cccc2c1Oc1c(C(=O)NCCCN(C)C)cccc1C2(C)C | > 30 | 40 | > 30 | > 300 | > 300 | EC50 (Trypanosoma brucei [5]): 4.5 µg/mL (≈ 9.64 µM)
2 | CN(C)CCCNCCCc1cccc2c1Oc1c(CCCNCCCN(C)C)cccc1C2(C)C | > 30 | 63 | > 30 | > 30 | > 30 | EC50 (Trypanosoma brucei [7]): 0.07 µg/mL (≈ 0.141 µM)
3 | CN(C)CCCNCc1cccc2c1Oc1c(CNCCCN(C)C)cccc1C2(C)C | > 30 | 13.8 | > 30 | > 300 | > 300 | EC50 (Trypanosoma brucei [8]): 3.32 µg/mL (≈ 7.57 µM)
4 | O=C(Cn1ccnc1[N+](=O)[O-])NCc1ccccc1 [BENZNIDAZOLE] | – | – | – | – | – | EC50 (Trypanosoma cruzi [9]): 8.5 µg/mL (≈ 32.7 µM)
5 | CN(C)CCC/N=C(\S)NCCCc1cccc2c1Oc1c(CCCN/C(S)=N/CCCN(C)C)cccc1C2(C)C | > 30 | 52 | > 30 | > 30 | > 30 | EC50 (Trypanosoma brucei [10]): 0.06 µg/mL (≈ 0.0979 µM)
6 | N=C(N)c1ccc(OCCCCCOc2ccc(C(=N)N)cc2)cc1 [PENTAMIDINE] | – | – | – | – | – | EC50 (Trypanosoma brucei [11]): 0.01 µg/mL (≈ 0.0294 µM)
7 | CN(C)CCCNC(=O)c1cc(C(C)(C)C)cc2c1Oc1c(C(=O)NCCCN(C)C)cc(C(C)(C)C)cc1C2(C)C | – | 28.4 | – | > 30 | > 30 | EC50 (Leishmania donovani [12]): 0.32 µg/mL (≈ 0.553 µM); EC50 (Trypanosoma cruzi [13]): 0.28 µg/mL (≈ 0.484 µM); EC50 (Trypanosoma brucei [14]): 0.01 µg/mL (≈ 0.0173 µM)
8 | CN(C)CCCNC(=O)CCc1cccc2c1Oc1c(CCC(=O)NCCCN(C)C)cccc1C2(C)C | > 30 | 58 | – | > 300 | > 300 | EC50 (Leishmania donovani [15]): 17 µg/mL (≈ 32.6 µM); EC50 (Trypanosoma brucei [16]): 4.3 µg/mL (≈ 8.23 µM)
